Reference: US20050112573A1, “Method of detecting toxic substance” (priority 2001, published 2005)

Test system: yeast genes (level of expressed mRNA)
Assay: DNA chip analysis of expressed mRNA of yeast genes after 2 h culture with a toxic chemical substance
Type: cell-based, Saccharomyces cerevisiae S288C
Procedure, shortened: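 Values are treated-to-control fluorescence ratios from a whole-yeast-genome DNA chip (65° C, over 12 h hybridization) using Cy3/Cy5-labelled cDNA from mRNA. Log-phase S288C cells in YPD at 25° C were exposed 2 h to a toxicant at sublethal, growth-inhibiting concentration.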

## C=CC=O [(14), acrolein]
Gene YGR293C
  The level of expressed mRNA in the presence of chemical substance/absence: YGR293C: 1.0
Gene YHL006C
  The level of expressed mRNA in the presence of chemical substance/absence: YHL006C: 1.1
Gene YHL021C
  The level of expressed mRNA in the presence of chemical substance/absence: YHL021C: 1.1
Gene YHL037C
  The level of expressed mRNA in the presence of chemical substance/absence: YHL037C: 0.9
Gene YHR037W
  level of expressed mRNA in the presence of chemical substance/in its absence: 1.1
Gene YHR083W
  The level of expressed mRNA in the presence of chemical substance/absence: YHR083W: 1.6
Gene YHR092C
  level of expressed mRNA in the presence of chemical substance/in its absence: 1.6
Gene YHR095W
  The level of expressed mRNA in the presence of chemical substance/absence: YHR095W: 0.9
Gene YHR105W
  The level of expressed mRNA in the presence of chemical substance/absence: YHR105W: 1.2
Gene YHR134W
  The level of expressed mRNA in the presence of chemical substance/absence: YHR134W: 1.6
Gene YHR137W
  level of expressed mRNA in the presence of chemical substance/in its absence: 0.8
Gene YHR180W
  The level of expressed mRNA in the presence of chemical substance/absence: YHR180W: 1.5
Gene YHR181W
  The level of expressed mRNA in the presence of chemical substance/absence: YHR181W: 1.6
Gene YHR190W
  level of expressed mRNA in the presence of chemical substance/in its absence: 1.3
Gene YIL033C
  level of expressed mRNA in the presence of chemical substance/in its absence: 0.7
Gene YIL108W
  The level of expressed mRNA in the presence of chemical substance/absence: YIL108W: 1.0
Gene YIL127C
  The level of expressed mRNA in the presence of chemical substance/absence: YIL127C: 1.3
Gene YIL154C
  level of expressed mRNA in the presence of chemical substance/in its absence: 0.9
Gene YIL165C
  The level of expressed mRNA in the presence of chemical substance/absence: YIL165C: 1.3
Gene YIL167W
  level of expressed mRNA in the presence of chemical substance/in its absence: 1.4
Gene YIR035C
  level of expressed mRNA in the presence of chemical substance/in its absence: 1.1
Gene YJL017W
  The level of expressed mRNA in the presence of chemical substance/absence: YJL017W: 1.0
Gene YJL032W
  The level of expressed mRNA in the presence of chemical substance/absence: YJL032W: 1.6
Gene YJL037W
  The level of expressed mRNA in the presence of chemical substance/absence: YJL037W: 2.0
Gene YJL049W
  The level of expressed mRNA in the presence of chemical substance/absence: YJL049W: 1.8
Gene YJL088W
  level of expressed mRNA in the presence of chemical substance/in its absence: 2.0
Gene YJL097W
  The level of expressed mRNA in the presence of chemical substance/absence: YJL097W: 1.0
Gene YJL132W
  level of expressed mRNA in the presence of chemical substance/in its absence: 1.4
Gene YJL196C
  level of expressed mRNA in the presence of chemical substance/in its absence: 0.8
Gene YJR030C
  The level of expressed mRNA in the presence of chemical substance/absence: YJR030C: 1.0
Gene YJR044C
  The level of expressed mRNA in the presence of chemical substance/absence: YJR044C: 1.3
Gene YJR142W
  level of expressed mRNA in the presence of chemical substance/in its absence: 1.3
Gene YJR148W
  level of expressed mRNA in the presence of chemical substance/in its absence: 1.3
Gene YJR159W
  level of expressed mRNA in the presence of chemical substance/in its absence: 2.0
Gene YKL051W
  The level of expressed mRNA in the presence of chemical substance/absence: YKL051W: 0.7
Gene YKL059C
  The level of expressed mRNA in the presence of chemical substance/absence: YKL059C: 1.1
Gene YKL067W
  level of expressed mRNA in the presence of chemical substance/in its absence: 1.2
Gene YKL090W
  The level of expressed mRNA in the presence of chemical substance/absence: YKL090W: 1.4
Gene YKL094W
  The level of expressed mRNA in the presence of chemical substance/absence: YKL094W: 1.3
Gene YKL097C
  The level of expressed mRNA in the presence of chemical substance/absence: YKL097C: 1.0
Gene YKL100C
  The level of expressed mRNA in the presence of chemical substance/absence: YKL100C: 1.0
Gene YKR039W
  level of expressed mRNA in the presence of chemical substance/in its absence: 1.2
Gene YKR040C
  The level of expressed mRNA in the presence of chemical substance/absence: YKR040C: 3.8
Gene YLR097C
  The level of expressed mRNA in the presence of chemical substance/absence: YLR097C: 1.7
Gene YLR142W
  level of expressed mRNA in the presence of chemical substance/in its absence: 2.1
Gene YLR180W
  level of expressed mRNA in the presence of chemical substance/in its absence: 0.6
Gene YLR226W
  The level of expressed mRNA in the presence of chemical substance/absence: YLR226W: 1.1
Gene YLR273C
  level of expressed mRNA in the presence of chemical substance/in its absence: 1.3
Gene YLR300W
  level of expressed mRNA in the presence of chemical substance/in its absence: 0.6
Gene YLR307W
  level of expressed mRNA in the presence of chemical substance/in its absence: 1.9
Gene YLR338W
  The level of expressed mRNA in the presence of chemical substance/absence: YLR338W: 0.8
Gene YLR339C
  The level of expressed mRNA in the presence of chemical substance/absence: YLR339C: 0.5
Gene YLR392C
  The level of expressed mRNA in the presence of chemical substance/absence: YLR392C: 1.1
Gene YLR415C
  The level of expressed mRNA in the presence of chemical substance/absence: YLR415C: 0.8
Gene YLR427W
  The level of expressed mRNA in the presence of chemical substance/absence: YLR427W: 0.8
Gene YML013W
  The level of expressed mRNA in the presence of chemical substance/absence: YML013W: 1.1
Gene YML029W
  The level of expressed mRNA in the presence of chemical substance/absence: YML029W: 1.6
Gene YML041C
  The level of expressed mRNA in the presence of chemical substance/absence: YML041C: 2.2
Gene YML079W
  The level of expressed mRNA in the presence of chemical substance/absence: YML079W: 1.4
Gene YML110C
  level of expressed mRNA in the presence of chemical substance/in its absence: 1.4
Gene YML118W
  The level of expressed mRNA in the presence of chemical substance/absence: YML118W: 1.0
Gene YMR068W
  The level of expressed mRNA in the presence of chemical substance/absence: YMR068W: 1.1
Gene YMR071C
  The level of expressed mRNA in the presence of chemical substance/absence: YMR071C: 1.2
Gene YMR105C
  level of expressed mRNA in the presence of chemical substance/in its absence: 1.0
Gene YMR114C
  The level of expressed mRNA in the presence of chemical substance/absence: YMR114C: 1.5
Gene YMR115W
  The level of expressed mRNA in the presence of chemical substance/absence: YMR115W: 1.3
Gene YMR160W
  The level of expressed mRNA in the presence of chemical substance/absence: YMR160W: 1.1
Gene YMR189W
  level of expressed mRNA in the presence of chemical substance/in its absence: 1.6
Gene YMR258C
  The level of expressed mRNA in the presence of chemical substance/absence: YMR258C: 1.0
Gene YMR271C
  level of expressed mRNA in the presence of chemical substance/in its absence: 1.8
Gene YMR272C
  level of expressed mRNA in the presence of chemical substance/in its absence: 0.8
Gene YMR296C
  level of expressed mRNA in the presence of chemical substance/in its absence: 0.7
Gene YNL012W
  level of expressed mRNA in the presence of chemical substance/in its absence: 1.0
Gene YNL026W
  The level of expressed mRNA in the presence of chemical substance/absence: YNL026W: 0.8
Gene YNL037C
  level of expressed mRNA in the presence of chemical substance/in its absence: 1.3
Gene YNL045W
  level of expressed mRNA in the presence of chemical substance/in its absence: 0.8
Gene YNL058C
  The level of expressed mRNA in the presence of chemical substance/absence: YNL058C: 0.8
Gene YNL063W
  The level of expressed mRNA in the presence of chemical substance/absence: YNL063W: 1.1
Gene YNL104C
  level of expressed mRNA in the presence of chemical substance/in its absence: 0.9
Gene YNL106C
  level of expressed mRNA in the presence of chemical substance/in its absence: 1.1
Gene YNL130C
  level of expressed mRNA in the presence of chemical substance/in its absence: 1.0
Gene YNL169C
  level of expressed mRNA in the presence of chemical substance/in its absence: 0.9
Gene YNL176C
  The level of expressed mRNA in the presence of chemical substance/absence: YNL176C: 0.9
Gene YNL181W
  The level of expressed mRNA in the presence of chemical substance/absence: YNL181W: 1.9
Gene YNL191W
  The level of expressed mRNA in the presence of chemical substance/absence: YNL191W: 1.0
Gene YNL194C
  The level of expressed mRNA in the presence of chemical substance/absence: YNL194C: 3.0
Gene YNL200C
  The level of expressed mRNA in the presence of chemical substance/absence: YNL200C: 0.6
Gene YNL212W
  The level of expressed mRNA in the presence of chemical substance/absence: YNL212W: 1.0
Gene YNL231C
  level of expressed mRNA in the presence of chemical substance/in its absence: 0.9
Gene YNL253W
  The level of expressed mRNA in the presence of chemical substance/absence: YNL253W: 1.4
Gene YNL265C
  The level of expressed mRNA in the presence of chemical substance/absence: YNL265C: 1.9
Gene YNL276C
  The level of expressed mRNA in the presence of chemical substance/absence: YNL276C: 1.5
Gene YNL322C
  level of expressed mRNA in the presence of chemical substance/in its absence: 1.2
Gene YNR002C
  level of expressed mRNA in the presence of chemical substance/in its absence: 1.2
Gene YNR019W
  level of expressed mRNA in the presence of chemical substance/in its absence: 1.0
Gene YNR033W
  level of expressed mRNA in the presence of chemical substance/in its absence: 0.9
Gene YNR051C
  The level of expressed mRNA in the presence of chemical substance/absence: YNR051C: 1.0
Gene YNR059W
  level of expressed mRNA in the presence of chemical substance/in its absence: 1.0
Gene YOL026C
  The level of expressed mRNA in the presence of chemical substance/absence: YOL026C: 1.3
Gene YOL030W
  The level of expressed mRNA in the presence of chemical substance/absence: YOL030W: 0.6
Gene YOL058W
  level of expressed mRNA in the presence of chemical substance/in its absence: 1.5
Gene YOL126C
  level of expressed mRNA in the presence of chemical substance/in its absence: 1.2
Gene YOL143C
  level of expressed mRNA in the presence of chemical substance/in its absence: 0.7
Gene YOL153C
  level of expressed mRNA in the presence of chemical substance/in its absence: 1.5
Gene YOL157C
  level of expressed mRNA in the presence of chemical substance/in its absence: 1.2
Gene YOR022C
  The level of expressed mRNA in the presence of chemical substance/absence: YOR022C: 1.0
Gene YOR087W
  The level of expressed mRNA in the presence of chemical substance/absence: YOR087W: 0.9
Gene YOR088W
  The level of expressed mRNA in the presence of chemical substance/absence: YOR088W: 0.4
Gene YOR099W
  level of expressed mRNA in the presence of chemical substance/in its absence: 0.7
Gene YOR130C
  level of expressed mRNA in the presence of chemical substance/in its absence: 1.3
Gene YOR136W
  level of expressed mRNA in the presence of chemical substance/in its absence: 0.9
Gene YOR138C
  The level of expressed mRNA in the presence of chemical substance/absence: YOR138C: 0.9
Gene YOR155C
  The level of expressed mRNA in the presence of chemical substance/absence: YOR155C: 1.5
Gene YOR253W
  The level of expressed mRNA in the presence of chemical substance/absence: YOR253W: 1.3
